Laboratory results reported in PubChem BioAssay (NCI).
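GI50 marks 50% less growth. The concentration for full growth arrest is given as TGI.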

Legend:
Assay in all cases: growth of human tumour cells (NCI), 384-well format
[1] = test system: SK-OV-3 ovarian
[2] = test system: NCI-H226 lung
[3] = test system: UACC-257 melanoma
[4] = test system: A549 NSCLC
[5] = test system: CAKI-1 renal
[6] = test system: UACC-62 melanoma
[7] = test system: SR leukemia
[8] = test system: MDA-MB-231 breast
[9] = test system: OVCAR-3 ovarian
[10] = test system: HCT-15 colon
[11] = test system: NCI-H23 lung
[12] = test system: OVCAR-4 ovarian
[13] = test system: HL-60(TB) leukemia
[14] = test system: A498 renal
[15] = test system: K-562 leukemia
[16] = test system: HOP-62 NSCLC
[17] = test system: SF-268 CNS
[18] = test system: SK-MEL-28 melanoma
[19] = test system: HCT-116 colon
[20] = test system: HOP-92 NSCLC
[21] = test system: BT-549 breast
[22] = test system: MOLT-4 leukemia
[23] = test system: SF-539 CNS
[24] = test system: SK-MEL-2 melanoma
[25] = test system: IGROV1 ovarian
[26] = test system: OVCAR-8 ovarian
[27] = test system: HT29 colon
[28] = test system: MDA-MB-435 melanoma
[29] = test system: OVCAR-5 ovarian
[30] = test system: SNB-75 CNS
[31] = test system: SW-620 colon
[32] = test system: PC-3 prostate
[33] = test system: COLO 205 colon
[34] = test system: SK-MEL-5 melanoma
[35] = test system: HS 578T breast
[36] = test system: MCF7 breast
[37] = test system: ACHN renal
[38] = test system: EKVX NSCLC
[39] = test system: RXF 393 renal
[40] = test system: SN12C renal
[41] = test system: NCI-H522 lung
[42] = test system: KM12 colon
[43] = test system: M14 melanoma
[44] = test system: DU-145 prostate
[45] = test system: 786-0 renal
[46] = test system: SF-295 CNS
[47] = test system: NCI-H322M lung
[48] = test system: MDA-MB-468 breast
[49] = test system: UO-31 renal
[50] = test system: TK-10 renal
[51] = test system: U251 glioblastoma
[52] = test system: MALME-3M melanoma
[53] = test system: T-47D breast
[54] = test system: SNB-19 CNS

O=C(NCCc1ccccc1)C(c1csc2ccccc12)N(C(=O)CCl)c1ccc(-c2cnco2)cc1 (configuration not stated)
GI50 [1]: 197 nM | TGI [1]: 394 nM | GI50 [2]: 193 nM | TGI [2]: 724 nM | GI50 [3]: 121 nM | TGI [3]: 412 nM | GI50 [4]: 263 nM | TGI [4]: 1580 nM | GI50 [5]: < 10 nM | TGI [5]: 19 nM | GI50 [6]: 18 nM | TGI [6]: 34 nM | GI50 [7]: 17.6 nM | TGI [7]: 31.9 nM | GI50 [8]: 19.9 nM | TGI [8]: 43.3 nM | GI50 [9]: 145 nM | TGI [9]: 314 nM | GI50 [10]: 77.6 nM | TGI [10]: 216 nM | GI50 [11]: 16.5 nM | TGI [11]: 35 nM | GI50 [12]: 16.8 nM | TGI [12]: 30.8 nM | GI50 [13]: 21.4 nM | TGI [13]: 36.4 nM | GI50 [14]: 104 nM | TGI [14]: 222 nM | GI50 [15]: 78.4 nM | TGI [15]: 212 nM | GI50 [16]: 23.7 nM | TGI [16]: 68.4 nM | GI50 [17]: 70.3 nM | TGI [17]: 198 nM | GI50 [18]: 1430 nM | TGI [18]: 2740 nM | GI50 [19]: 287 nM | TGI [19]: 1030 nM | GI50 [20]: 16.9 nM | TGI [20]: 31.1 nM | GI50 [21]: 37.6 nM | TGI [21]: 131 nM | GI50 [22]: 20.2 nM | TGI [22]: 36.4 nM | GI50 [23]: 16.5 nM | TGI [23]: 34.9 nM | GI50 [24]: 29.7 nM | TGI [24]: 102 nM | GI50 [25]: 18.2 nM | TGI [25]: 34 nM | GI50 [26]: 19.6 nM | TGI [26]: 56.6 nM | GI50 [27]: 127 nM | TGI [27]: 273 nM | GI50 [28]: 432 nM | TGI [28]: 1680 nM | GI50 [29]: 349 nM | TGI [29]: 1310 nM | GI50 [30]: 19.1 nM | TGI [30]: 38 nM | GI50 [31]: 151 nM | TGI [31]: 289 nM | GI50 [32]: 110 nM | TGI [32]: 245 nM | GI50 [33]: 1460 nM | TGI [33]: 2780 nM | GI50 [34]: 358 nM | TGI [34]: 1680 nM | GI50 [35]: 113 nM | TGI [35]: 238 nM | GI50 [36]: 342 nM | TGI [36]: 1480 nM | GI50 [37]: 16 nM | TGI [37]: 30 nM | GI50 [38]: 15.7 nM | TGI [38]: 32.1 nM | GI50 [39]: 10.8 nM | TGI [39]: 23.2 nM | GI50 [40]: 1040 nM | TGI [40]: 2220 nM | GI50 [41]: < 10 nM | TGI [41]: 15.1 nM | GI50 [42]: 483 nM | TGI [42]: 1640 nM | GI50 [43]: 138 nM | TGI [43]: 288 nM | GI50 [44]: 62 nM | TGI [44]: 1400 nM | GI50 [45]: 16.5 nM | TGI [45]: 33.2 nM | GI50 [46]: 131 nM | TGI [46]: 261 nM | GI50 [47]: 1680 nM | TGI [47]: 3050 nM | GI50 [48]: 21.5 nM | TGI [48]: 88.1 nM | GI50 [49]: < 10 nM | GI50 [50]: 18.6 nM | TGI [50]: 36.4 nM | GI50 [51]: 101 nM | TGI [51]: 239 nM | GI50 [52]: 56.4 nM | TGI [52]: 180 nM | GI50 [53]: 37.7 nM | TGI [53]: 148 nM | GI50 [54]: 1760 nM | TGI [54]: 3160 nM
